Measured values reported in patent publication US5491159A, “2-(3,5-di-tert-butyl-4-hydroxy-phenyl)-oxazoles as anti-atherosclerotic agents” (American Home Products Corporation, priority 1994, dated 1996).

Legend:
[1] = system: rabbit or monkey LDL; assay: Inhibition of Copper Ion Mediated Oxidation of Low Density Lipoprotein (in vitro); type: biochemical; conditions: Cu^+2, rabbit or monkey LDL, 37° C., 90 minutes, absorbance at 532 nm; non-linear regression log [I] vs. % inhibition
Method: In this in vitro assay, the inhibition of Cu^+2 mediated oxidation of rabbit or monkey LDL by an invention compound is determined spectrophotometrically. Oxidation of LDL results in the formation of LDL-diene which absorbs light at 532 nm. Inhibition of oxidation of LDL leads to a decrease in absorbance at 532 nm.
Rabbit or monkey LDL is prepared according to the procedures of Havel, Eder and Gragdon, "The Distribution and Chemical Composition of Ultracentrifugally Separated Lipoproteins in Human Serum,: J. Clin. Invest. 34, 1345-1353 (1955) and Parhtasarathy, Wieland and Steriberg, "A Role for Endothelial Cell Lipoxygenase in the Oxidative Modification of Low Density Lipoprotein, " Proc. Natl. Acad. Sci. USA 86, 1046-1050 (1989). Test compound solutions are prepared by dissolving the invention compounds in ethanol at concentrations up to 248 μM. The medium used is Dulbecco's phosphate buffered saline containing 0.5 mg/ml bovine serum albumin. For standards, 0 to 10 μl of an aqueous solution of 1,1,3,3-tetraethoxypropane (1 μmol/ml H2 O) in 4.1 ml of medium is used.
Test compound solution (100 μl) is added to 4 ml of medium in incubation tubes. To each tube is added 10 μl of LDL solution and 25 μl of aqueous copper sulfate solution (1.32 mg/ml H2 O). The tubes are incubated at 37° C. for 90 minutes and the oxidation reaction quenched by addition of 1 ml of thiobarbituric acid solution (0.67% in 50% acetic acid). The tubes are heated at 90° C. for 1 hour, then chilled in an ice bath and the chromophore extracted into 2 ml of n-butanol. Absorbence is read at 532 nm and the results are reported as nmols of malondialdehyde equivalents.
Significant differences (p<0.05) are determined by the Dunnett T-test or by the Student-Newman Keuls Test for significant differences between means. The assay is conducted using several concentrations [I] of the inhibitor test compounds. The LDL solution concentrations at different experiments were either 1.5 mg/ml, 2.5 mg/ml or 10.3 mg/ml. The IC50 is determined by non-linear regression, plotting log [I] vs. % inhibition. (Reference: K. Yagi, Biochemical Medicine 15, 212-216 (1976)).

[2] = system: WHHL rabbits; conditions: cited from earlier work
[3] = system: LDL; conditions: cited from earlier work
[4] = system: LDL; conditions: cited from earlier work; remark: listed apart in the source

| IC50 [1] [nM] | SMILES | inhibition of the formation of atherosclerotic lesions (in words) [2] | inhibition of cell mediated oxidative modification of LDL (in words) [3] | inhibition of Cu^+2 mediated oxidative modification of LDL (in words) [4] |
| --- | --- | --- | --- | --- |
| 250 | COC(=O)Cc1coc(-c2cc(C(C)(C)C)c(O)c(C(C)(C)C)c2)n1 [Example 4, [2-(3,5-di-tert-butyl-4-hydroxyphenyl)-oxazol-4-yl]-acetic acid methyl ester] | – | – | – |
| 270 | CC(C)(Sc1cc(C(C)(C)C)c(O)c(C(C)(C)C)c1)Sc1cc(C(C)(C)C)c(O)c(C(C)(C)C)c1 [probucol] | inhibit the formation of atherosclerotic lesions in WHHL rabbits | inhibits both cell mediated and Cu^+2 mediated oxidative modification of LDL | inhibits both cell mediated and Cu^+2 mediated oxidative modification of LDL |
| 70 | COC(=O)Cc1nc(-c2cc(C(C)(C)C)c(O)c(C(C)(C)C)c2)oc1C [Example 1, [2-(3,5-di-tert-butyl-4-hydroxyphenyl)-5-methyloxazol-4-yl]-acetic acid methyl ester] | – | – | – |
| 230 | COC(=O)NC(=O)Cc1nc(-c2cc(C(C)(C)C)c(O)c(C(C)(C)C)c2)oc1C [Example 5, {2-[2-(3,5-di-tert-butyl-4-hydroxyphenyl)-5-methyloxazol-4-yl]acetyl}carbamic acid methyl ester] | – | – | – |
| 270 | CCOC(=O)Cc1nc(-c2cc(C(C)(C)C)c(O)c(C(C)(C)C)c2)oc1C [Example 3, [2-(3,5-di-tert-butyl-4-hydroxyphenyl)-5-methyloxazol-4-yl]-acetic acid ethyl ester] | – | – | – |
| 160 | Cc1oc(-c2cc(C(C)(C)C)c(O)c(C(C)(C)C)c2)nc1CC(=O)O [Example 2, [2-(3,5-di-tert-butyl-4-hydroxyphenyl)-5-methyloxazol-4-yl]-acetic acid] | – | – | – |
